Reference: patent publication US20190144423A1, “AMIDE-SUBSTITUTED PYRIDINYLTRIAZOLE DERIVATIVES AND USES THEREOF” (BAYER PHARMA AKTIENGESELLSCHAFT, priority 2016, published 2019)

Tests used:
[1] = biological target: T1, human V1a receptor (Homo sapiens, UniProt P37288); test: Cellular in vitro assay for determining vasopressin receptor activity (V1a cell line, aequorin luminescence); format: cell-based; settings: Table 1A, compounds of the invention; for IC50: CHO cell line transfected with human V1a receptor, antagonism of [Arg8]-vasopressin at EC50, read-out: IC50 hV1a; for ratio IC50 hV2/hV1a: selectivity ratio
T1 construct: expressed in transfected cells; host or cells: CHO K1 (ATCC), also stably transfected with a modified aequorin
Procedure: (§1) B-1. Cellular In Vitro Assay for Determining Vasopressin Receptor Activity
(§2) The identification of agonists and antagonists of the V1a and V2 vasopressin receptors from humans, rats and dogs as well as the quantification of the activity of the compounds of the invention is carried out using recombinant cell lines. These cell lines originally derive from a hamster's ovary epithelial cell (Chinese Hamster Ovary, CHO K1, ATCC: American Type Culture Collection, Manassas, Va. 20108, USA). The test cell lines constitutively express the human, rat or dog V1a or V2 receptors. In case of the Gαq-coupled V1a receptors, cells are also stably transfected with a modified form of the calcium-sensitive photoproteins aequorin (human and rat V1a) or obelin (dog V1a), which, after reconstitution with the cofactor coelenterazine, emit light when there are increases in free calcium concentrations [Rizzuto R, Simpson A W, Brini M, Pozzan T, Nature 358, 325-327 (1992); Illarionov B A, Bondar V S, Illarionova V A, Vysotski E S, Gene 153 (2), 273-274 (1995)]. The resulting vasopressin receptor cells react to stimulation of the recombinantly expressed V1a receptors by intracellular release of calcium ions, which can be quantified by the resulting photoprotein luminescence. The Gs-coupled V2 receptors are stably transfected into cell lines expressing the gene for firefly luciferase under control of a CRE-responsible promoter. Activation of V2 receptors induces the activation of the CRE-responsive promoter via cAMP increase, thereby inducing the expression of firefly luciferase. The light emitted by photoproteins of V1a cell lines as well as the light emitted by firefly luciferase of V2 cell lines corresponds to the activation or inhibition of the respective vasopressin receptor. The bioluminescence of the cell lines is detected using a suitable luminometer [Milligan G, Marshall F, Rees S, Trends in Pharmacological Sciences 17, 235-237 (1996)].
Vasopressin V1a Receptor Cell Lines:
On the day before the assay, the cells are plated out in culture medium (DMEM/F12, 2% FCS, 2 mM glutamine, 10 mM HEPES, 5 μg/ml coelenterazine) in 384-well microtiter plates and kept in a cell incubator (96% humidity, 5% v/v CO2, 37° C.). On the day of the assay, test compounds in various concentrations are placed for 10 minutes in the wells of the microtiter plate before the agonist [Arg^8]-vasopressin at EC50 concentration is added. The resulting light signal is measured immediately in a luminometer.
(§3) Table 1A below lists individual IC50 values for the compounds of the invention (including racemic mixtures as well as separated enantiomers) that were obtained from cell lines transfected with the human V1a or V2 receptor: […]

[2] = biological target: T2, human V2 receptor (Homo sapiens, UniProt P30518); test: Cellular in vitro assay for determining vasopressin receptor activity (V2 cell line, CRE-luciferase); format: cell-based; settings: CHO cell line transfected with human V2 receptor; antagonism of [Arg8]-vasopressin at EC50; Table 1A, compounds of the invention; read-out: IC50 hV2
T2 construct: expressed in transfected cells; host or cells: CHO K1 (ATCC) line expressing firefly luciferase under a CRE-responsive promoter
Procedure: as §1, §2
Vasopressin V2 Receptor Cell Lines:
On the day before the assay, the cells are plated out in culture medium (DMEM/F12, 2% FCS, 2 mM glutamine, 10 mM HEPES) in 384-well microtiter plates and kept in a cell incubator (96% humidity, 5% v/v CO2, 37° C.). On the day of the assay, test compounds in various concentrations and the agonist [Arg^s]-vasopressin at EC50 concentration are added together to the wells, and plates are incubated for 3 hours in a cell incubator. Upon addition of the cell lysis reagent Triton™ and the substrate luciferin, luminescence of firefly luciferase is measured in a luminometer.
as §3

T1 sequence (P37288 whole entry): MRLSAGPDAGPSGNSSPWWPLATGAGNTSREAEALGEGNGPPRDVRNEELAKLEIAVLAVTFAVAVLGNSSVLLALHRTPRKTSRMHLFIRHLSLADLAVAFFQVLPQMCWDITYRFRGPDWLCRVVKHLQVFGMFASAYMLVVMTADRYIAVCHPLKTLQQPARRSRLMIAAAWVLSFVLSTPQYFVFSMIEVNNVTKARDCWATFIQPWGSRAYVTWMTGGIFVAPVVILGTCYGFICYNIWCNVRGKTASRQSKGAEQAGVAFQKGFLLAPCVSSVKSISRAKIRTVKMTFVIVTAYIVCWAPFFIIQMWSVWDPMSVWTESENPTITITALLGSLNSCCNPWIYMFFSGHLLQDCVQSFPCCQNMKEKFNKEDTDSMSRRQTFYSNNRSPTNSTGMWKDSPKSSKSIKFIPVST
T2 sequence (P30518 whole entry): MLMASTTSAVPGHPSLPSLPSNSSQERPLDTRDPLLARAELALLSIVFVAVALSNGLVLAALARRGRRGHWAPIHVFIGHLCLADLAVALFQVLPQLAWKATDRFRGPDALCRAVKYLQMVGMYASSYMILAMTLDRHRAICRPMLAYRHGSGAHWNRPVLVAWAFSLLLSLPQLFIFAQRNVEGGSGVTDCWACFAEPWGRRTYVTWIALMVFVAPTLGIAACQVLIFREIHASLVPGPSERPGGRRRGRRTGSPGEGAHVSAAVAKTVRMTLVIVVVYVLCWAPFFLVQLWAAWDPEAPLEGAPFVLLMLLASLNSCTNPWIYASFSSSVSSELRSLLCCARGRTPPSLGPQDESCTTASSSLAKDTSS

IC50 [1]	IC50 [2]	ratio IC50 hV2/hV1a [1]	SMILES
0.00057 µM	0.025 µM		NC(=O)c1nc(Cn2nc(-c3ccc(Cl)cc3)n(C[C@H](O)C(F)(F)F)c2=O)nn1-c1cnccc1Cl [Example 6, 3-({3-(4-Chlorophenyl)-5-oxo-4-[(2S)-3,3,3-trifluoro-2-hydroxypropyl]-4,5-dihydro-1H-1,2,4-triazol-1-yl}methyl)-1-(4-chloropyridin-3-yl)-1H-1,2,4-triazole-5-carboxamide]
0.0014 µM	0.075 µM		NC(=O)c1nc(Cn2nc(-c3ccc(Cl)cc3)n(CC(=O)C(F)(F)F)c2=O)nn1-c1cnccc1Cl [Example 16, 3-{[3-(4-Chlorophenyl)-5-oxo-4-(3,3,3-trifluoro-2-oxopropyl)-4,5-dihydro-1H-1,2,4-triazol-1-yl]methyl}-1-(4-chloropyridin-3-yl)-1H-1,2,4-triazole-5-carboxamide]
0.0025 µM	0.293 µM		NC(=O)c1nc(Cn2nc(-c3ccc(Cl)cc3)n(C[C@H](O)C(F)(F)F)c2=O)nn1-c1cnccc1C(F)(F)F [Example 7, 3-({3-(4-Chlorophenyl)-5-oxo-4-[(2S)-3,3,3-trifluoro-2-hydroxypropyl]-4,5-dihydro-1H-1,2,4-triazol-1-yl}methyl)-1-[4-(trifluoromethyl)pyridin-3-yl]-1H-1,2,4-triazole-5-carboxamide]
0.0012 µM	0.17 µM		NC(=O)c1nc(Cn2nc(-c3ccc(Cl)cc3)n(C[C@H](O)C(F)(F)F)c2=O)nn1-c1ncccc1C(F)(F)F [Example 2, 3-({3-(4-Chlorophenyl)-5-oxo-4-[(2S)-3,3,3-trifluoro-2-hydroxypropyl]-4,5-dihydro-1H-1,2,4-triazol-1-yl}methyl)-1-[3-(trifluoromethyl)pyridin-2-yl]-1H-1,2,4-triazole-5-carboxamide]
0.00102 µM	0.039 µM		NC(=O)c1nc(Cn2nc(-c3ccc(Cl)cc3)n(C[C@H](O)C(F)(F)F)c2=O)nn1-c1ncccc1Cl [Example 1, 3-({3-(4-Chlorophenyl)-5-oxo-4-[(2S)-3,3,3-trifluoro-2-hydroxypropyl]-4,5-dihydro-1H-1,2,4-triazol-1-yl}methyl)-1-(3-chloropyridin-2-yl)-1H-1,2,4-triazole-5-carboxamide]
0.0052 µM	0.104 µM	20.0	NC(=O)c1nc(Cn2nc(-c3ccc(Cl)cc3)n(CC(=O)C(F)(F)F)c2=O)nn1-c1ncccc1Cl [Example 14, 3-{[3-(4-Chlorophenyl)-5-oxo-4-(3,3,3-trifluoro-2-oxopropyl)-4,5-dihydro-H-1,2,4-triazol-1-yl]methyl}-1-(3-chloropyridin-2-yl)-1H-1,2,4-triazole-5-carboxamide]
0.0031 µM	0.61 µM		NC(=O)c1nc(Cn2nc(-c3ccc(Cl)cc3)n(C[C@@H](O)C(F)(F)F)c2=O)nn1-c1ncccc1C(F)(F)F [Example 11, 3-({3-(4-Chlorophenyl)-5-oxo-4-[(2R)-3,3,3-trifluoro-2-hydroxypropyl]-4,5-dihydro-1H-1,2,4-triazol-1-yl}methyl)-1-[3-(trifluoromethyl)pyridin-2-yl]-1H-1,2,4-triazole-5-carboxamide]
0.016 µM	0.875 µM		NC(=O)c1nc(Cn2nc(-c3ccc(Cl)cc3)n(C[C@H](O)C(F)(F)F)c2=O)nn1-c1ncccc1OC(F)(F)F [Example 3, 3-({3-(4-Chlorophenyl)-5-oxo-4-[(2S)-3,3,3-trifluoro-2-hydroxypropyl]-4,5-dihydro-1H-1,2,4-triazol-1-yl}methyl)-1-[3-(trifluoromethoxy)pyridin-2-yl]-1H-1,2,4-triazole-5-carboxamide]
0.0255 µM	0.892 µM	35.0	CCOC(=O)c1ccncc1-n1nc(Cn2nc(-c3ccc(Cl)cc3)n(C[C@H](O)C(F)(F)F)c2=O)nc1C(N)=O [Example 8, Ethyl 3-[5-carbamoyl-3-({3-(4-chlorophenyl)-5-oxo-4-[(2S)-3,3,3-trifluoro-2-hydroxypropyl]-4,5-dihydro-1H-1,2,4-triazol-1-yl}methyl)-1H-1,2,4-triazol-1-yl]isonicotinate]
0.0016 µM	0.69 µM		NC(=O)c1nc(Cn2nc(-c3ccc(Cl)cc3)n(C[C@@H](O)C(F)(F)F)c2=O)nn1-c1cnccc1C(F)(F)F [Example 13, 3-({3-(4-Chlorophenyl)-5-oxo-4-[(2R)-3,3,3-trifluoro-2-hydroxypropyl]-4,5-dihydro-H-1,2,4-triazol-1-yl}methyl)-1-[4-(trifluoromethyl)pyridin-3-yl]-1H-1,2,4-triazole-5-carboxamide]
0.00123 µM	0.0893 µM		NC(=O)c1nc(Cn2nc(-c3ccc(Cl)cc3)n(C[C@H](O)C(F)(F)F)c2=O)nn1-c1ncccc1Br [Example 4, 1-(3-Bromopyridin-2-yl)-3-({3-(4-chlorophenyl)-5-oxo-4-[(2S)-3,3,3-trifluoro-2-hydroxypropyl]-4,5-dihydro-1H-1,2,4-triazol-1-yl}methyl)-1H-1,2,4-triazole-5-carboxamide]
0.00345 µM	0.86 µM		NC(=O)c1nc(Cn2nc(-c3ccc(Cl)cc3)n(C[C@@H](O)C(F)(F)F)c2=O)nn1-c1cnccc1Cl [Example 12, 3-({3-(4-Chlorophenyl)-5-oxo-4-[(2R)-3,3,3-trifluoro-2-hydroxypropyl]-4,5-dihydro-H-1,2,4-triazol-1-yl}methyl)-1-(4-chloropyridin-3-yl)-1H-1,2,4-triazole-5-carboxamide]
		66.0	NC(=O)c1nc(Cn2nc(-c3ccc(Cl)cc3)n(CC(=O)C(F)(F)F)c2=O)nn1-c1ncccc1C(F)(F)F [Example 17, 3-{[3-(4-Chlorophenyl)-5-oxo-4-(3,3,3-trifluoro-2-oxopropyl)-4,5-dihydro-H-1,2,4-triazol-1-yl]methyl}-1-[3-(trifluoromethyl)pyridin-2-yl]-1H-1,2,4-triazole-5-carboxamide]
0.0068 µM	0.79 µM		NC(=O)c1nc(Cn2nc(-c3ccc(Cl)cc3)n(C[C@@H](O)C(F)(F)F)c2=O)nn1-c1ncccc1Cl [Example 10, 3-({3-(4-Chlorophenyl)-5-oxo-4-[(2R)-3,3,3-trifluoro-2-hydroxypropyl]-4,5-dihydro-1H-1,2,4-triazol-1-yl}methyl)-1-(3-chloropyridin-2-yl)-1H-1,2,4-triazole-5-carboxamide]
0.075 µM	2.25 µM	30.0	NC(=O)c1cccnc1-n1nc(Cn2nc(-c3ccc(Cl)cc3)n(C[C@H](O)C(F)(F)F)c2=O)nc1C(N)=O [Example 9, 2-[5-carbamoyl-3-({3-(4-chlorophenyl)-5-oxo-4-[(2S)-3,3,3-trifluoro-2-hydroxypropyl]-4,5-dihydro-1H-1,2,4-triazol-1-yl}methyl)-1H-1,2,4-triazol-1-yl]nicotinamide]
0.0135 µM	0.637 µM		NC(=O)c1nc(Cn2nc(-c3ccc(Cl)cc3)n(CC(=O)C(F)(F)F)c2=O)nn1-c1ncccc1Br [Example 15, 1-(3-Bromopyridin-2-yl)-3-{[3-(4-chlorophenyl)-5-oxo-4-(3,3,3-trifluoro-2-oxopropyl)-4,5-dihydro-1H-1,2,4-triazol-1-yl]methyl}-1H-1,2,4-triazole-5-carboxamide]
0.0145 µM	1.24 µM		CCOC(=O)c1cccnc1-n1nc(Cn2nc(-c3ccc(Cl)cc3)n(C[C@H](O)C(F)(F)F)c2=O)nc1C(N)=O [Example 5, Ethyl 2-[5-carbamoyl-3-({3-(4-chlorophenyl)-5-oxo-4-[(2S)-3,3,3-trifluoro-2-hydroxypropyl]-4,5-dihydro-1H-1,2,4-triazol-1-yl}methyl)-1H-1,2,4-triazol-1-yl]nicotinate]
